Laboratory results taken from patent publication US12029715B2, “Precursor compounds for providing retinoids of the vitamin A5 pathway and uses thereof” (UNIVERSITY OF DEBRECEN, priority 2015, dated 2024).
Entries after “also recorded” stand apart in the source; their conditions may differ. One block for each compound: values may come before it.

Tests used:
[1] = tested on: oligodendrocytes cell line 158N; assay: Metabolic conversion in mouse oligodendrocytes cell culture (LC-MS); format: in vitro ADME; settings: for 9CDHRA levels in cells after treatment: 10^−5M for 18 h; for 9CDHROL levels in cells after treatment: 10^−6 M, 18 hours; for conversion to 9CDHRA: data not shown; for 9CBC in cells after treatment: 411 nm detection, retention time 26.1 min; for 9CDHBC peak in cells after treatment: UV detection at 366 nm, retention time 25.1 min
Description: Normal immortalized oligodendrocytes cell line 158N was cultured as previously reported (Feutz et al., 2001). Expediently, cells were cultured in supplemented with 5% calf serum (Invitrogen, France). When cells attained 70% of confluency they were treated with 10^−2 M ethanol solution of one of the following compounds: 9CDHROL, 9CDHROL-acetate, 9CDHRA-ethyl ester. 9CDHRA and ethanol as controls, vehicle treatment. 18 h after treatment cells were collected in amber Eppendorf tubes and stored at −80° C. until analyses. Treatments and cell collection were carried out in light limited conditions to avoid photolysis of retinoids.
(§1) In a slight variant of the method, after reaching confluency of 80% cells were treated with 9CDHROL, 9CDH-retinyl ester (acetate, 9CDHROL-ES), 9CDHRA, 9CDH-retinoyl ester, (ethyl ester, 9CDHRA-ES), ATROL, 9CDHBC, 9CBC and ATBC at a concentration of 10^−6 M or ethanol at corresponding concentration was used as control vehicle treatment. Cells were harvested 18 hours later, centrifuged, weighted, frozen in liquid nitrogen and stored at −80° C. until analyses.
(§2) High performance liquid chromatography mass spectrometry (LC-MS) was carried out as described in Example 4.

[2] = tested on: human oligodendrocytes cell cultures; assay: Metabolic conversion in human oligodendrocytes cell culture (HPLC-MS); format: in vitro ADME; settings: 10^−6M; for 9CDHRA levels in cells after treatment (metabolism / accumulation): n=3
Description: as §1, §2
9CDHRA levels including standard deviation in human oligodendrocytes cultures were assessed using HPLC-MS analysis after control treatment using ethanol (CTRL), as well as ATROL treatment (ATROL), 9CBC treatments (9CBC), ATBC treatments (ATBC), 9CDHBC treatment (9CDHBC), 9CDHROL treatments (9CDHROL), 9CDHROL-ester treatments (9CDHROL-ES), 9CDHRA treatments (9CDHRA) or 9CDHRA-ester treatments (9CDHRA-ES), each with 10^−6M concentration and n=3 (FIG. 14D).

[3] = tested on: differentiating monocyte-derived human dendritic cells; assay: DNA microarray in differentiating monocyte-derived dendritic cells; format: cell-based; settings: for expression of genes that are direct targets of RXR permissive heterodimers (LXR-RXR, PPAR-RXR) and RAR-RXR: 9CDHRA 10 μM, 9CRA 1 μM, GW3965 1 μM, RSG 1 μM, GW1516 1 μM, AM580 100 nM
Description: The generation and transcriptional analysis of differentiating DCs were performed as described previously [Szeles L et al. 2010]. Microarray data were deposited into the Gene Expression Omnibus database under accession no. GSE48573.
The generation and analysis of differentiating DCs were performed as described previously [Szeles L et al. 2010] with minor modifications. Briefly, human monocytes were isolated from healthy volunteer's buffy coat, obtained with a Regional Ethical Board permit from the Regional Blood Bank and isolated by Ficoll gradient centrifugation followed by immunomagnetic cell separation, and were cultured in the presence of GM-CSF and IL-4. Differentiating DCs were stimulated 18 h after […] by various agonists for 12 h. The ligands were used in the following concentrations: 10 μM (R)-9CDHRA, 10 μM (S)-9CDHRA, 1 μM 9cisRA, 100 nM LG100268, 1 μM GW3965, 1 μM Rosiglitazone (RSG), 1 μM GW1516, 100 nM AM580. Experiments were performed in biological triplicates. Samples were processed and hybridized to Human Genome U133 Plus 2.0 Arrays. Data were analysed using to GeneSpring 12.6.1 software. In detail, normalization was performed using RMA summarization algorithm. […] Microarray data were deposited into the Gene Expression Omnibus database under accession no. GSE48573.

[4] = tested on: Rbp1−/−, Rxrγ−/− and WT mice; assay: Forced swim test after acute treatment; format: in vivo, mouse; settings: Rbp1−/− mice, acute i.p. treatment 5-6 h before the test
Description: (§3) The forced swim paradigm was carried out between 1 pm and 4 pm in a 3-litre glass beaker half-filled with water at 22-23° C. (the water depth was 17 cm). All mice were tested only once in this task. To this end, each mouse was lowered gently into the water and the time of immobility was scored during a 6-minute testing period. The mouse was judged immobile when it floated in an upright position and made only small movements to keep its head above the water. After 6 min, the mouse was taken out of the water, left to dry under a red light lamp and returned to its home cage. The immobility scores of each animal were used as an index of despair behavior.
(§4) Vehicle treatments consisted of 3% ethanol and 3% DMSO solution in sunflower oil. Treatments were administered by intraperitoneal injections at volume/weight ratio 3 ml/kg between 8-10 am and 5-6 h before the test as previously validated (Wietrzych-Schindler M, 2011).
as §3, with “paradigm (Dalvi and Lucki, 1999)” for “paradigm”, “2-litre” for “3-litre”

Rbp1−/− and Rxrγ−/− mice = assay: Y-maze spontaneous alternation; format: in vivo, mouse; settings: 5-6 hours prior to testing
Description: The Y-maze apparatus and the procedure were as previously described (Wietrzych et al., 2005). Briefly, each mouse was placed at the end of one arm and allowed to explore freely the apparatus for 5 min, with the experimenter out of the animal's sight. Spontaneous alternation performance (SAP) was assessed visually by scoring the pattern of entries into each arm and expressed as a percentage of total number of entries, discounting the first two visits. Total entries were scored as an index of ambulatory activity in the Y-maze, but none of tested mice had to be excluded due to low locomotor performance (score below 9 entries).
as §4

[5] = Rbp1−/− mice, ATRA 5 mg/kg, UVI2108 1 mg/kg, MA 5 mg/kg, DHA 1 mg/kg, TTNPB 5 mg/kg

9CDHRA levels in cells after treatment [1]: strong increase
9CDHROL levels in cells after treatment [1]: excellent/strongly
conversion to 9CDHRA [1]: excellent precursor
production of 9CDHRA by the ester form compared with 9CDHROL and 9CDHRA, respectively [2]: higher production
Compound: CC(=O)OCC[C@@H](C)/C=C/C=C(C)\C=C\C1=C(C)CCCC1(C)C (stereo in doubt) [9CDHROL-ES, (R)-9-cis-13,14-dihydroretinyl acetate]

ATROL levels in cells after treatment ([1]; 10^−6M): a low conversion or induced increase
9CBC in cells after treatment [1]: could detect 9CBC
9CDHBC peak in cells after treatment [1]: higher peak was observed
conversion to 9CDHRA [1]: not converted to 9CDHRA
9CDHRA levels in cells after treatment (metabolism / accumulation) [2]: not converted to 9CDHRA
Compound: CC1=C(/C=C/C(C)=C\C=C\C(C)=C\C=C\C=C(C)\C=C\C=C(C)\C=C\C2=C(C)CCCC2(C)C)C(C)(C)CCC1 [9CBC, 9-cis-β,β-Carotene]
9CDHROL levels in cells after treatment [1]: no or just a weak increase; also recorded: weak significant increase

9CDHRA levels in cells after treatment [1]: very strong increase
production of 9CDHRA by the ester form compared with 9CDHROL and 9CDHRA, respectively [2]: higher production
9CDHRA levels in cells after treatment (metabolism / accumulation) [2]: strong accumulation
Compound: CCOC(=O)C[C@@H](C)/C=C/C=C(C)\C=C\C1=C(C)CCCC1(C)C [9CDHRA-ES, Ethyl (9Z,13R)-13,14-Dihydroretinoate]

Compound: CC1=C(/C=C/C(C)=C\C=C\C(C)=C\C(=O)O)C(C)(C)CCC1 [9CRA, 9-cis-retinoic acid, reference compound]
expression of genes induced by AM580 (RAR-RXR target genes) [3]: also induced
number of transcripts regulated ([3]; 10 μM (R)-9CDHRA, 1 μM 9CRA, 12 h, FC>2): 450
expression of genes that are direct targets of RXR permissive heterodimers (LXR-RXR, PPAR-RXR) and RAR-RXR ([3]; LG268 100 nM): induce the expression of many genes

Compound: CC1(C)CCC(C)(C)c2cc(C(=O)Nc3ccc(C(=O)O)cc3)ccc21 [AM580, reference compound]
expression of genes that are direct targets of RXR permissive heterodimers (LXR-RXR, PPAR-RXR) and RAR-RXR ([3]; LG268 100 nM): also induced

9CBC in cells after treatment [1]: no 9CBC could be detected
9CDHBC peak in cells after treatment [1]: not be conclusively detected
conversion to 9CDHRA [1]: not converted to 9CDHRA
ATBC level in cells after ATBC-treatment ([1]; detectable at 411 nm, eluting at 27.2 min): present in very high levels
9CDHRA levels in cells after treatment (metabolism / accumulation) [2]: not converted to 9CDHRA
Compound: CC1=C(/C=C/C(C)=C/C=C/C(C)=C/C=C/C=C(C)/C=C/C=C(C)/C=C/C2=C(C)CCCC2(C)C)C(C)(C)CCC1 [ATBC, all-trans-β,β-carotene, reference compound]
9CDHROL levels in cells after treatment [1]: did not display any increase; also recorded: did not result in any increase

Compound: Cc1cc(SCc2sc(-c3ccc(C(F)(F)F)cc3)nc2C)ccc1OCC(=O)O [GW1516, reference compound]
expression of genes that are direct targets of RXR permissive heterodimers (LXR-RXR, PPAR-RXR) and RAR-RXR ([3]; LG268 100 nM): also induced

Compound: O=C(O)Cc1cccc(OCCCN(Cc2cccc(C(F)(F)F)c2Cl)CC(c2ccccc2)c2ccccc2)c1 [GW3965, reference compound]
expression of genes that are direct targets of RXR permissive heterodimers (LXR-RXR, PPAR-RXR) and RAR-RXR ([3]; LG268 100 nM): also induced

Compound: Cc1cc2c(cc1C1(c3ccc(C(=O)O)cn3)CC1)C(C)(C)CCC2(C)C [LG268, reference compound]
expression of genes that are direct targets of RXR permissive heterodimers (LXR-RXR, PPAR-RXR) and RAR-RXR ([3]; LG268 100 nM): induce the expression of many genes
transcripts of the set common to (R)-9CDHRA and 9CRA also regulated by LG268 ([3]; LG268 100 nM): 61

Compound: C/C(=C\c1ccc(C(=O)O)cc1)c1ccc2c(c1)C(C)(C)CCC2(C)C [TTNPB]
immobility (despair) in the forced swim test [4]: did not display such effects
working memory in spontaneous alternation in the Y-maze (Rbp1−/− and Rxrγ−/− mice; [5]): not

Compound: COC(C)(C)CCCC(C)C/C=C/C(C)=C/C(=O)O (stereo not shown) [methoprene acid]
immobility (despair) in the forced swim test [4]: normalized increased despair
immobility (despair) in the forced swim test ([4]; listed as MA): normalised
working memory in spontaneous alternation in the Y-maze (Rbp1−/− and Rxrγ−/− mice; [5]): pro-mnemonic effects
working memory in spontaneous alternation in the Y-maze (Rbp1−/− and Rxrγ−/− mice; Rbp1−/− mice, ATRA 5 mg/kg, UVI2108 1 mg/kg, MA 5 mg/kg, DHA 1 mg/kg, TTNPB 5 mg/kg, listed as MA): normalised
working memory in spontaneous alternation in the Y-maze (Rbp1−/− and Rxrγ−/− mice; Rxrγ−/− mice, same doses): not
